Test results reported in publication PMC9508125, “The evolutionary advantage of an aromatic clamp in plant family 3 glycoside exo-hydrolases” (Nature Communications, 2022).
Changes are numbered by the printed parent chain.

What was measured:
[1] = molecular target: Native HvExoI (Hordeum vulgare, UniProt Q9XEI3); assay: Inhibition by thio-analogues using the 4NP-Glc substrate; format: biochemical; details: for ΔG: calculated according to ∆G = -RT ln [1/Ki]; for Ki: apparent inhibition constant, 4NP-Glc substrate
Chain of Native HvExoI (Q9XEI3 entry or part of it): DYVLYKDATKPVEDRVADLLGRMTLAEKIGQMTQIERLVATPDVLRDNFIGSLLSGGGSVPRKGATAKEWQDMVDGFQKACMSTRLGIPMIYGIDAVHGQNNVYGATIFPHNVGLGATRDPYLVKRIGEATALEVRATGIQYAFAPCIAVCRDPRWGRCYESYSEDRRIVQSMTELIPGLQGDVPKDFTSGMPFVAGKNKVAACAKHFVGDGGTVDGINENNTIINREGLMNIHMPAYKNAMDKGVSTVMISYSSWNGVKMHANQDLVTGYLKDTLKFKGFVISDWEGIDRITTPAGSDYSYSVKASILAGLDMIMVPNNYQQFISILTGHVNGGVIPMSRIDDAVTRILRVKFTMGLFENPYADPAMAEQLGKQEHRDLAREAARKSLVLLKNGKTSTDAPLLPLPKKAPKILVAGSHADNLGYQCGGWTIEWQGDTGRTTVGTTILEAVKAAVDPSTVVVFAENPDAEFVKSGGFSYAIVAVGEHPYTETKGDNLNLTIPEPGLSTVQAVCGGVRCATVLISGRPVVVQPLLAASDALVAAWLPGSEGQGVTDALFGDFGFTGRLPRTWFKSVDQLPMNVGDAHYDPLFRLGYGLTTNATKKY
Procedure: (§1) Dependency of activities of WT and mutant HvExoI on pH (McIlvaine buffers in the pH range of 3.5–8.5 at 30 °C) and temperature (100 mM sodium acetate buffer, pH 5.25, temperature range 0–80 °C, 15 min incubations) were determined using 0.2% (w/v) 4NP-Glc[21],[59]. Relative rates of hydrolysis of β-linked poly-, oligosaccharides, and aryl-glucosides were determined using near-homogenous HvExoI at 50 pmoles. […] Kinetic parameters were calculated from the analyses of Michaelis-Menten plots with Grafit 7.0.3[62] and processed by a proportional weighted fit, using nonlinear regression. The relative rates of hydrolysis, kinetic, and inhibition data were rounded to one or two decimal points (Supplementary Tables 2–4).

[2] = molecular target: T1, WT HvExoI (Hordeum vulgare, UniProt Q9XEI3); assay: as above; format: biochemical; details: for ΔG: calculated according to ∆G = -RT ln [1/Ki]; for type of inhibition: WT HvExoI
T1 sequence (Q9XEI3 entry or part of it): as above
Procedure: as §1

[3] = tested on: Recombinant HvExoI W286Y; format: biochemical, Hordeum vulgare; details: calculated according to ∆G = -RT ln [1/Ki]
Procedure: as §1

[4] = tested on: Recombinant HvExoI W434H; assay: Inhibition by thio-analogues using the 4NP-Glc substrate; format: biochemical, Hordeum vulgare; details: for ΔG: calculated according to ∆G = -RT ln [1/Ki]
Procedure: as §1

[5] = tested on: Recombinant HvExoI W434Y; assay: as above; format: biochemical, Hordeum vulgare; details: calculated according to ∆G = -RT ln [1/Ki]
Procedure: as §1

[6] = tested on: Recombinant HvExoI W434F; assay: as above; format: biochemical, Hordeum vulgare; details: for ΔG: calculated according to ∆G = -RT ln [1/Ki]
Procedure: as §1

[7] = tested on: Recombinant HvExoI W434A; assay: as above; format: biochemical, Hordeum vulgare; details: calculated according to ∆G = -RT ln [1/Ki]
Procedure: as §1

[8] = tested on: Recombinant HvExoI W286F; assay: as above; format: biochemical, Hordeum vulgare; details: calculated according to ∆G = -RT ln [1/Ki]
Procedure: as §1

[9] = molecular target: T2, HvExoI W434H mutant (Hordeum vulgare, UniProt Q9XEI3, W459H); assay: Relative rates of hydrolysis of poly-, oligosaccharides and aryl-glycosides; format: biochemical; details: substance is the substrate
T2 sequence (Q9XEI3 26-630 W459H): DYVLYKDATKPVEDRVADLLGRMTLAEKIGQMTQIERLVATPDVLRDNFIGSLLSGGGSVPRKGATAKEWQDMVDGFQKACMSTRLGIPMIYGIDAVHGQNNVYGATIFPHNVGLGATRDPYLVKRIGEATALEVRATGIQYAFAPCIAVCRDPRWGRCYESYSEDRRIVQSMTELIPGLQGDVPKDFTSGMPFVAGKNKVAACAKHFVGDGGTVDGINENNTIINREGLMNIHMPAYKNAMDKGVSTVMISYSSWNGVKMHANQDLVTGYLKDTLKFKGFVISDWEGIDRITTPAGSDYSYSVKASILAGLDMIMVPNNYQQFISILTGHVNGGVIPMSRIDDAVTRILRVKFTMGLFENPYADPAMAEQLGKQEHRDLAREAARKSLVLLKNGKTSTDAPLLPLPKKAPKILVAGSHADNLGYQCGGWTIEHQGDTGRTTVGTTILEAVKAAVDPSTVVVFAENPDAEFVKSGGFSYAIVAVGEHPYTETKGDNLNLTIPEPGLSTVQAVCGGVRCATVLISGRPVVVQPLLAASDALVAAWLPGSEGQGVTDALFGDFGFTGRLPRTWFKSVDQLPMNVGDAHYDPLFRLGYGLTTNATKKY
Procedure: as §1

[10] = molecular target: T1, WT HvExoI; assay: as above; format: biochemical; details: substance is the substrate, HvExoI at 50 pmoles, nd = activity not detected
Procedure: as §1

[11] = molecular target: T3, HvExoI W286F/W434F mutant (Hordeum vulgare, UniProt Q9XEI3, W311F/W459F); assay: as above; format: biochemical; details: substance is the substrate, nd = activity not detected
T3 sequence (Q9XEI3 26-630 W311F/W459F): T2 sequence (Q9XEI3 26-630 W459H) with W286F, H434F
Procedure: as §1

[12] = molecular target: HvExoI; set-up: method as in PMID 8617814; details: transition state analogue; previous observations; cited from earlier work

Molecule	ΔG [1]	ΔG ([2]; Recombinant WT)	type of inhibition [2]	ΔG [3]	ΔG [4]	ΔG [5]	ΔG [6]	ΔG [8]	further results
CO[C@@H]1O[C@H](CO)[C@@H](O)[C@H](O)[C@H]1S[C@@H]1O[C@H](CO)[C@@H](O)[C@H](O)[C@H]1O [G2SG-OMe, methyl 2-thio-β-sophoroside]	-3.75 kcal/mol	-3.32 kcal/mol	–	–	–	–	–	–	–
4-nitrophenyl 3-thio-laminaribioside [4NP-G3SG]	-4.37 kcal/mol	-4.37 kcal/mol	competitive inhibition	-3.75 kcal/mol	-3.61 kcal/mol	-3.75 kcal/mol	-4.11 kcal/mol	-4.37 kcal/mol	ΔG [7]: -3.92 kcal/mol
CO[C@@H]1O[C@H](CS[C@@H]2O[C@H](CO)[C@@H](O)[C@H](O)[C@H]2O)[C@@H](O)[C@H](O)[C@H]1O [G6SG-OMe, methyl 6-thio-β-gentiobioside]	-5.54 kcal/mol	-5.09 kcal/mol	competitive inhibition	-4.88 kcal/mol	-4.3 kcal/mol	-4.88 kcal/mol	-4.47 kcal/mol	-5.14 kcal/mol	Ki [1]: 100 µM; fold higher Ki constant value compared to WT [4]: 8 fold; fold higher Ki constant value compared to WT [6]: 6 fold
CO[C@@H]1O[C@H](CO)[C@@H](S[C@@H]2O[C@H](CO)[C@@H](O)[C@H](O)[C@H]2O)[C@H](O)[C@H]1O [G4SG-OMe, methyl 4-thio-β-cellobioside]	-4.16 kcal/mol	-4.16 kcal/mol	competitive inhibition	-3.68 kcal/mol	-3.85 kcal/mol	-3.3 kcal/mol	-3.42 kcal/mol	-3.75 kcal/mol	Ki [1]: 1000 µM; Ki ([2]; Recombinant WT, apparent inhibition constant, 4NP-Glc substrate): 1000 µM; ΔG [7]: -3.68 kcal/mol
O=[N+]([O-])c1ccc(O[C@@H]2O[C@H](CO)[C@@H](O[C@@H]3O[C@H](CO)[C@@H](O)[C@H](O)[C@H]3O)[C@H](O)[C@H]2O)cc1 [4NP-cellobioside]	–	–	–	–	–	–	–	–	Activity (relative rate of hydrolysis) [9]: 0.04 ± 0.001 μmole/min per mg protein; Activity (relative rate of hydrolysis) [10]: 0.9 ± 0.01 μmole/min per mg protein
lichenin	–	–	–	–	–	–	–	–	Activity (relative rate of hydrolysis) [9]: 0.03 ± 0.01 μmole/min per mg protein; Activity (relative rate of hydrolysis) [11]: 0.03 ± 0.001 μmole/min per mg protein; Activity (relative rate of hydrolysis) [10]: 0.8 ± 0.1 μmole/min per mg protein
O=C1O[C@H](CO)[C@@H](O)[C@H](O)[C@H]1O [D-glucono−1,5-lactone]	–	–	–	–	–	–	–	–	Ki [12]: 2.1 µM
